Results reported in US20230271956A1, “AMIDE DERIVATIVES” (Merck Patent GmbH, priority 2020, published 2023).

Target: T1, ACSS2 (Homo sapiens, UniProt Q9NR19)
T1 construct: endogenous fatty acid synthesis activity in the human HCT-15 cancer cell line; endogenous in cells; host or cells: HCT-15
Test: Cellular assay of 14C acetate incorporation into fatty acids (IC50 ACSS2 cellular lipids)
Format: cell-based
Details: HCT-15 cells
Summary of the method: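 Human HCT-15 cells, 24 h on collagen, pre-incubated with compound 2 h at 37 °C in RPMI 1640/10 mM HEPES (≤0.1% DMSO), then 2 h with 14C-acetate plus AlamarBlue as viability check. Lysis at 70 °C, acidified fatty acids captured on scintillant plates; 14C incorporation counted as CPM.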

T1 sequence (Q9NR19 whole entry): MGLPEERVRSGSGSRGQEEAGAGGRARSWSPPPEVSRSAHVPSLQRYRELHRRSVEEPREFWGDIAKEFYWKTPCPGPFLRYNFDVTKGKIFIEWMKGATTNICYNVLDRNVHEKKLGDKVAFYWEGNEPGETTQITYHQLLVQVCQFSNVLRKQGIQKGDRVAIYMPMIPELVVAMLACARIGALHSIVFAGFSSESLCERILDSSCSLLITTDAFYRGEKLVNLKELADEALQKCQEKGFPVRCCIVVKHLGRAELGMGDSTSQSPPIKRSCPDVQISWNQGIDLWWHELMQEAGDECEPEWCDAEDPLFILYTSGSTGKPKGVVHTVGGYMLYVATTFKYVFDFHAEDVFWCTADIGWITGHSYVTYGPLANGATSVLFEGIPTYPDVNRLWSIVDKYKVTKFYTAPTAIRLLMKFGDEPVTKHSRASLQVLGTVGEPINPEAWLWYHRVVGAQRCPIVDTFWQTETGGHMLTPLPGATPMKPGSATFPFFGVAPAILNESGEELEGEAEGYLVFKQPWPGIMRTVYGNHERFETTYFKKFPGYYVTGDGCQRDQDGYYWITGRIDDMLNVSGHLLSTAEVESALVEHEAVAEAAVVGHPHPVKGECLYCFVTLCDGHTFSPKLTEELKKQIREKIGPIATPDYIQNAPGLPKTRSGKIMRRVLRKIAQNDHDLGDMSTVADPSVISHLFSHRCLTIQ

CCn1cc(NC(=O)c2cc3c(nc2F)nc(C(O)(c2ccccc2F)c2ccccc2F)n3CC)cn1 [Compound 90, 2-[bis(2-fluorophenyl)(hydroxy)methyl]-1-ethyl-N-(1-ethyl-1H-pyrazol-4-yl)-5-fluoro-1H-imidazo[4,5-b]pyridine-6-carboxamide] and CCn1cnc(NC(=O)c2cc3c(nc2F)nc(C(O)(c2ccccc2F)c2ccccc2F)n3CC)n1 [Compound 91, 2-[bis(2-fluorophenyl)(hydroxy)methyl]-1-ethyl-N-(1-ethyl-1H-1,2,4-triazol-3-yl)-5-fluoro-1H-imidazo[4,5-b]pyridine-6-carboxamide] fall in the same range of IC50: 1 to 10 nM for the first, 1 to 10 nM for the second.

First: CCn1cc(NC(=O)c2cc3c(nc2Cl)nc(C(O)(c2ccccc2)c2ccccc2)n3CC)cn1 [Compound 98, 5-chloro-1-ethyl-N-(1-ethyl-1H-pyrazol-4-yl)-2-(hydroxydiphenylmethyl)-1H-imidazo[4,5-b]pyridine-6-carboxamide]
Second: CCn1cnc(NC(=O)c2cc3c(nc2OC)nc(C(O)(c2ccccc2)c2ccccc2)n3CC)n1 [Compound 103, 1-ethyl-N-(1-ethyl-1H-1,2,4-triazol-3-yl)-2-(hydroxydiphenylmethyl)-5-methoxy-1H-imidazo[4,5-b]pyridine-6-carboxamide]
The IC50 of the first is higher: 10 to 100 nM for the first, 1 to 10 nM for the second.

CCn1cnc(NC(=O)c2cc3c(nc2OC)nc(C(O)(c2ccccc2F)c2ccccc2F)n3CC)n1 [Compound 102, 2-[bis(2-fluorophenyl)(hydroxy)methyl]-1-ethyl-N-(1-ethyl-1H-1,2,4-triazol-3-yl)-5-methoxy-1H-imidazo[4,5-b]pyridine-6-carboxamide] and CCn1c(C(O)(c2ccccc2)c2ccccc2)nc2ccc(C(=O)NC[C@@H](C)O)cc21 [Reference Compound, 3-Ethyl-2-[hydroxy(diphenyl)methyl]-N-[(2R)-2-hydroxypropyl]benzimidazole-5-carboxamide, reference compound] fall in the same range of IC50: 1 to 10 nM for the first, 1 to 10 nM for the second.
